Series [1] has as its system intracellular calcium concentration ([Ca^2+]i). Put plainly: [Ca^2+]i measurement with Indo-1 AM in SgPC2 cells. The format is cell-based, human. The procedure: Briefly, on the day of the experiment, cells were washed in Krebs-Ringer phosphate buffer (KRPH; pH 7.4, containing 1.0 mM MgSO4, 1.3 mM CaCl2, 10 mM Hepes, 5 mM glucose, 125 mM NaCl, 5 mM KCl, and 10 mM sodium phosphate) and subsequently loaded with 10-20 μM Indo-1 AM (70 μl/coverslip; Molecular Probes, Inc., Eugene, Oreg., USA) containing 10 μM probenecid (Molecular Probes) for 30 min at 37° C. The attached cells were washed and bathed in KRPH/probenecid at 4° C. or room temperature until further analysis. Then, coverslips were individually submerged into KRPH and preequilibrated inside the […] fluorimeter (Hitachi) in darkness for 3 min, and [Ca^2+]i was monitored continuously at 37° C., with excitation at […] and emission at 400 and 450 nm. H2O2 and other agents were injected at different time points, as indicated under Results. [Ca^2+]i was calculated as described. Rmax was determined by adding 8-16 μM digitonin and Rmin with 10 mM ethylene glycol-bis(β-aminoethyl)-N,N,N'-tetraacetic acid (EGTA). […] The baseline, which represented unstimulated cells scanned over time, was plotted along with other measurements or subtracted from the other plots. Cells were serum-depleted, 1 day before the experiment, by incubating them overnight in DMEM plus 0.5% FBS. […] Then, CaCl2 was added before determining the Rmax for each run.

For series [2], the system named is SgJFH1-Luc RNA (subgenomic JFH1 replicon). Nature of the series: SgJFH1-Luc RNA replication in Huh7 cells, luciferase assay. The format is cell-based, hepatitis C virus. As to conditions: Huh7 cells transfected with SgJFH1-Luc RNA. The procedure: (§1) For viral RNA transfection, JFH1, JFH1/GND, and pSGR-JFH1-Luc were linearized with XbaI and used to synthesize the corresponding positive-sense stranded HCV RNA, as previously described (68). Then, 5×10^6 Huh7 cells were rinsed with Opti-Mem (Invitrogen), mixed briefly with 10-20 μg of the in vitro transcribed RNA in 0.4 ml of Opti-Mem, and then electroporated at 260 volts and 950 μF. […] Medium was changed daily. For infection with HCV, medium collected from JFH1 RNA-transfected cells were cleared of cell debris, as described, and added to naïve Huh7 cells. Typically, 1:2 or 3:2 ratio of the virus-containing medium and fresh cell culture medium were used.
SgJFH1-Luc RNA replication was also monitored by firefly luciferase reporter assay, using a kit from Promega.
To investigate whether the HCV RNA replication is modulated by ROS, Huh7 cells were transfected with the SgJFH1-Luc RNA and treated with GO plus glucose.
After 24 and 48 hours, respectively, the cells were collected in PBS, centrifuged, lysed in the reporter lysis buffer (Promega), and analyzed for luciferase activity.

Series [3] deals with subgenomic HCV replicon of genotype 1b. Put plainly: microbe, parasite or virus in culture. The format is cell-based, hepatitis C virus. As for the experimental part:
Huh7 human hepatoma cells were cultured in Dulbecco's modified Eagle medium (DMEM; Invitrogen, Carlsbad, Calif., USA) supplemented with 10% fetal bovine serum (FBS; Invitrogen), 100 units/ml of penicillin, and 100 μg/ml of streptomycin in a 5% CO2 incubator. SgPC2 cells are G418-selected, pooled Huh7 cell clones that support the continuous replication of a subgenomic HCV replicon of genotype 1b and [29] (GenBank Accession No. AJ242652) that carries a S11791 adaptive mutation within the NS5A region. SgPC2 cells were maintained in the above medium supplemented with 0.5 mg/ml G418 (Invitrogen). G418 was removed at least 1 day before cell treatments.

Another series concerns JFH1 HCV (genotype 2a). It counts as cell-based, hepatitis C virus. The procedure:
as §1
JFH1/GND was used as the negative control. When L-buthionine S,R-sulfoximine (BSO) was used, the cells were pretreated with BSO for 16-24 hrs prior to the initiation of treatments.
Intracellular JFH1 HCV RNA content was also analyzed by qRT-PCR (Taqman), using ABI7300 real time PCR system and one step RT-PCR kit from Applied Biosystems. The forward primer was 5′-[…]-3′ (nt. 146 to 164) and the reverse primer, 5′-[…]-3′ (nt. 277 to 295). The probe was 5′[…]3′ (nt. 168 to 188) and was fluorogenically labeled with FAM (5′) and TAMRA (3′) (Biosearch Technologies, Novato, Calif.). Briefly, the reactions were carried out at 48° C. for 30 min for reverse transcription, followed by denaturation at 95° C. for 10 min, and then 50 cycles of 15 sec denaturation at 95° C. plus 60 sec of annealing and extension at 60° C. All samples were analyzed in duplicates or triplicates. In vitro RNA transcripts were used to generate standard curve to determine RNA copy numbers. The level of 18S rRNA was also analyzed, using manufacturer-optimized protocol, as the control.
To analyze the amount of the extracellular HCV RNA, medium from the cells were cleared by low-speed centrifugation and then, treated with RNaseA at room temperature. Then, the RNA samples were extracted, using Trizol LS Reagent (Invitrogen), and analyzed for HCV RNA content by qRT-PCR.

Series [4] concerns GSH. Nature of the series: Intracellular glutathione (GSH) in SgPC2 cells, GSH recycling assay. The format is cell-based, human. Conditions: 20-40 μM BSO, 24 h.
Protocol: Intracellular GSH concentration was determined using a GSH recycling assay [35] and expressed as nmol/mg protein. ATP level was measured using the Somatic Cell ATP assay kit from Sigma-Aldrich, as previously described [32]. Protein level was determined with a bicinchoninic acid kit (Pierce Biotechnology, Inc., Rockford, Ill., USA).
The subject of a further series is JFH1-transfected cells. Put plainly: ATP concentration as cytotoxicity measure in JFH1-transfected cells. The procedure:
Determination of ATP concentrations—ATP level was measured, using Somatic Cell ATP Assay kit from Sigma-Aldrich, as previously described (68). Protein level was determined with bicinchoninic acid kit (Pierce Biotechnology, Inc., Rockford, Ill.).
ATP concentration was measured to determine if the treatments were cytotoxic to the cells.

The test system of series [5] is GSH. Put plainly: Intracellular GSH content in Huh7 cells (unpublished observation). As to conditions: twenty to 100 μM BSO. It counts as cell-based, human.
The subject of series [6] is newly synthesized HCV RNA. Nature of the series: 3H labeling of newly synthesized HCV RNA in SgPC2 cells. The format is cell-based, hepatitis C virus. Conditions: 6 h. The procedure:
One million SgPC2 cells were pretreated with 2 μM BAPTA-AM or DMSO alone for 1 h and then treated with 0 or 100 μM H2O2 in the presence of 100 μCi of [^3H]uridine (35-50 Ci/mmol; MP Biomedicals, Irvine, Calif., USA) and 4 μg/ml actinomycin D (Sigma-Aldrich) for 5 to 6 h and then lysed for the RNA isolation. RNA was analyzed on a 1% formaldehyde agarose gel, which was then treated with 1 M sodium salicylate for 20-30 min for fluorography. The RNA gel was also stained with ethidium bromide to visualize rRNA bands to serve as loading controls.

Series [7] concerns SgPC2 cells. As to conditions: JC-1 and annexin V-FITC staining. As for the experimental part:
Mitochondrial membrane potential was measured with JC1, using a Guava cytometer (Guava Technologies, Inc.). Apoptosis was also monitored with annexin V-FITC, with a 96-Nexin kit from Guava Technologies, Inc.

Series [8] relates to SgPC2 cells. The procedure: Intracellular GSH concentration was determined using a GSH recycling assay and expressed as nmol/mg protein. ATP level was measured using the Somatic Cell ATP assay kit from Sigma-Aldrich, as previously described. Protein level was determined with a bicinchoninic acid kit (Pierce Biotechnology, Inc., Rockford, Ill., USA).
For another series, the system named is genomic HCV RNA. Conditions: Huh7 cells transfected with genomic HCV RNA, H2O2 24 h.

Like-named read-outs stand apart in the source and are kept apart here.

Broadly, the IC50 is the concentration at which inhibition is half-maximal.

Protocol for genomic HCV RNA: Then, 5×10^6 Huh7 cells were rinsed with DMEM, mixed briefly with 10-20 μg of the subgenomic replicon RNA in 0.4 ml of DMEM, and then electroporated at 220 V and 975 μF. Then, 1 million cells were seeded onto 60-mm cell culture dishes in DMEM containing 10% FBS. Medium was changed daily and, after 2-4 days, the cells were preincubated with 1,2-bis(2-aminophenoxy)ethane-N,N,N′,N′-tetraacetic acid tetrakis acetoxymethyl ester (BAPTA-AM) or vehicle control alone for 1 h. Then, the cells were exposed to H2O2 for 24 h, and the amount of the HCV RNA was analyzed by Northern blot (see below).
Total RNA was extracted from cells, using Trizol reagent (Invitrogen), following the manufacturer's protocol. Five to 20 μg of RNA was then subjected to Northern blot analysis using a ^32P-labeled double-stranded DNA probe prepared from nt 3669 to nt 6016 of the subgenomic replicon. For these and all other experiments, RNA and protein bands were quantified with a phosphoimager (Cyclone; Perkin-Elmer) or by densitometry using SigmaScan (Jandel Scientific) or IS2000R (Kodak). The intensities of the bands of interest were normalized against the control glyceraldehyde-3-phosphate dehydrogenase (GAPDH) mRNA.

As to `CCCCS(=N)(=O)CCC(N)C(=O)O` (stereo not drawn) [BSO, 1-buthionine S,R-sulfoximine, reference compound], in series [1] (BSO-treated cells, after 24 h), the intracellular calcium concentration was found to be 60.6 ± 4.3 nM. In addition, the “HCV RNA level by luciferase activity” value in [2] was “further suppressed HCV RNA”. The “effect on HCV RNA level / replication” value in series [3] (SgPC2 cells, Northern blot) is listed as “sufficient to decrease the HCV RNA level”. Further, the “intracellular HCV RNA level” value with JFH1 HCV (genotype 2a) (JFH1-transfected cells, 20 uM) is “significant suppression”. In the series on GSH [4], the “decrease of total intracellular GSH concentration” value is “about 75%”. The “cytotoxicity (ATP concentration, cell survivability)” value in the series on JFH1-transfected cells was “did not cause any loss in cell survivability”. In addition, the “decrease of intracellular GSH content” value with GSH [5] is reported as “about 60%”.

In the case of `OO` [H2O2, Hydrogen peroxide], the “AUC of [Ca^2+]i elevation” value stood at 128.4±82.3 Ca^2+/min in series [1] (100 μM H2O2, with BAPTA (2 μM BAPTA-AM pretreatment)) and 935.9±58.9 Ca^2+/min in series [1] (100 μM H2O2, without BAPTA). The “TG-induced calcium elevation after H2O2 pretreatment, % of control” value in series [1] (H2O2 pretreatment 13 min, no extracellular calcium) worked out at 9.2±2.6%. Further, the “change in [Ca^2+]i” value in [1] (SgPC2 cells) was “gradual rise”. Besides, the “AUC of peroxide-induced calcium elevation” value in series [1] (with 1.3 mM extracellular calcium) amounted to 1278.5±109.5 Ca^2+/min; in [1] (without extracellular calcium) it was 1105.1±238.1 Ca^2+/min. Besides, the “HCV RNA (normalized to GAPDH mRNA), % of untreated control” value in series [3] is recorded as 36.8±16.6%. In addition, the “effect on HCV RNA replication after 30 min of treatment” value in series [3] is “significant suppression”. In series [3], the “suppression of HCV RNA level compared with IFN-γ” value is listed as “as effective as 100 to 2500 U/ml IFN-γ”. Moreover, the IC50 in series [3] (Hepatitis C virus, 24 h, read-out: IC50 of suppression of HCV RNA level) was about 25 µM. Moreover, in series [6], the “amount of HCV RNA synthesized ([3H]uridine, actinomycin D)” value is given as “significantly decreased”. The “inositol 1,3-triphosphate (IP3) level” value with IP3 is reported as “did not increase”. Besides, the “intracellular and extracellular HCV RNA levels” value with JFH1 HCV (genotype 2a) was “significantly decreased”. Moreover, the “mitochondrial membrane potential or apoptosis” value in the series with SgPC2 cells [7] is recorded as “no significant effect”. The results for the “total ATP content, % of untreated control” value in the series on SgPC2 cells [8] (30 min of treatment) and with SgPC2 cells [8] (24 h of treatment) were 125.4±0.3% and 97.3±8.25%, respectively. Further, the “genomic HCV RNA, % of untreated control” value in the series on genomic HCV RNA was 34.0±4.0%.

Source of the values: patent publication US20090123447A1, “COMPOSITIONS AND METHODS TO INHIBIT RNA VIRAL REPRODUCTION” (priority 2007, published 2009).
